Laboratory results published in patent US11999727B2 (Tango Therapeutics, Inc., priority 2020, dated 2024).

Columns and labels:
PRMT5 [1] = target: T1, PRMT5 (Homo sapiens, UniProt O14744); assay: PRMT5 biochemical IC50 assay with MTA as cofactor; settings: PRMT5, MTA as cofactor; read-out: MTA IC50
T1 construct: purchased Viva (custom protein)

PRMT5 [2] = target: T1, PRMT5; assay: PRMT5 biochemical IC50 assay with SAM as cofactor; settings: PRMT5, SAM as cofactor; read-out: SAM IC50
PRMT5 [3] = target: T1, PRMT5; assay: PRMT5 biochemical IC50 assay with no cofactor; settings: PRMT5, no cofactor
From the text: Table 1 indicates IC50 values (μM) against PRMT5 for exemplary compounds in the presence of SAM as cofactor, with no cofactor, and with MTA as cofactor, respectively (columns 4-6). […] Ki values can be calculated from the IC50 values as described in the Examples section. As detailed in the Examples section, for the assay performed in the presence of SAM, IC50=Ki×1.5 (Ki=IC50/1.5).

[4] = test system: HAP1 MTAP-deleted cell line; assay: SDMA in-cell western assay, HAP1 MTAP-deleted; assay type: cell-based; settings: for MTAP intact/deleted ratio: SDMA in-cell western; for IC50: Homo sapiens
From the text: Table 1 also indicates IC50 values in an MTAP-isogenic cell line pair for exemplary compounds in an SDMA in-cell western assay (columns 7-8). HAP1 MTAP-intact is a cell line in which endogenous levels of MTAP are expressed, and HAP1 MTAP-deleted is an MTAP-null cell line.

[5] = test system: HAP1 MTAP-deleted cell line; assay: Viability assay, MTAP-deleted cell line; assay type: cell-based
From the text: Table 1 additionally indicates IC50 values in a viability assay for the MTAP-deleted cell line (column 10), indicating the effect of treatment with compound on cell survival.

[6] = read-out: No Cofactor/ rel IC50
[7] = Homo sapiens, HAP1, read-out: HAP1 MTAP deleted viability

T1 sequence (O14744 whole entry): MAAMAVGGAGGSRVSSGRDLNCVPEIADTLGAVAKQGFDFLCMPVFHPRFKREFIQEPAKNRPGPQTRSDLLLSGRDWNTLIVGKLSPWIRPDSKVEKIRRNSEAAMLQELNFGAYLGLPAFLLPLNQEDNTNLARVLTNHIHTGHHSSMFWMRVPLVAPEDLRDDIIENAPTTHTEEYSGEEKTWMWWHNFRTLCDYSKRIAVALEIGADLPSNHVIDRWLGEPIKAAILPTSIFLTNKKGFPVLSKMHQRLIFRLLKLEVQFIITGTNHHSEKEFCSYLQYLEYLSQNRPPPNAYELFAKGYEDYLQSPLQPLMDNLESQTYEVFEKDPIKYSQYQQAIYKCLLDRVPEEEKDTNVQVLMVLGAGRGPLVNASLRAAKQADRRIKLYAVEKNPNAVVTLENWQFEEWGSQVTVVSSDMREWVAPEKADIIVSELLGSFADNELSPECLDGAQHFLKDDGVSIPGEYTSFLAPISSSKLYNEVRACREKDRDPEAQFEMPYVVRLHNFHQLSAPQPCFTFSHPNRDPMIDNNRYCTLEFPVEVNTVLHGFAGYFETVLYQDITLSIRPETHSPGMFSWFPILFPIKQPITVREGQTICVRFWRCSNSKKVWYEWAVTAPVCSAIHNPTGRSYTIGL
T1 sequence (Q9BQA1 whole entry partner): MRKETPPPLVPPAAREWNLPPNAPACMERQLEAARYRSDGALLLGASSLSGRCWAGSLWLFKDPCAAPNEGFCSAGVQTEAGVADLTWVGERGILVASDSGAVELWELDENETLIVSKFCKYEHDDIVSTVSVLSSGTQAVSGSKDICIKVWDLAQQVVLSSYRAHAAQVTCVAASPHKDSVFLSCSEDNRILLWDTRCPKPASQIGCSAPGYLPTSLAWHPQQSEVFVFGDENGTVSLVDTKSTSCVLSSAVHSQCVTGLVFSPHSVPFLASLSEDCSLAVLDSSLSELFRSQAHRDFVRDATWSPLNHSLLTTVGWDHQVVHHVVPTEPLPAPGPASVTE

SMILES	IC50 (PRMT5 [1])	IC50 (PRMT5 [2])	IC50 (PRMT5 [3]; read-out: No Cofactor/rel IC50)	IC50 (PRMT5 [3]; [6])	also measured
NC(=O)c1cncc(NC(=O)C(=O)N2C[C@@H](CO)CC[C@H]2c2ccccc2)c1 (racemic) [Compound 285, 5-(2-(5-(hydroxymethyl)-2-phenylpiperidin-1-yl)-2-oxoacetamido)nicotinamide]	50 to 500 nM	> 500 nM	> 500 nM		
NC(=O)c1cncc(NC(=O)C(=O)N2C[C@H](OC(F)F)CC[C@@H]2c2ccccc2)c1 (racemic) [Compound 400, 5-[[2-[(2R,5R)-5-(Difluoromethoxy)-2-phenyl-1-piperidyl]-2-oxo-acetyl]amino]pyridine-3-carboxamide]	50 to 500 nM	> 500 nM	> 500 nM		
NC(=O)c1cncc(NC(=O)C(=O)N2C[C@H](OC(F)(F)F)CC[C@H]2c2ccccc2)c1 (racemic) [Compound 411, 5-[[2-Oxo-2-[2-phenyl-5-(trifluoromethoxy)-1-piperidyl]acetyl]amino]pyridine-3-carboxamide]	50 to 500 nM	> 500 nM	> 500 nM		
Cc1cc(NC(=O)C(=O)N2C[C@H](C)CC[C@H]2c2ccc3c(c2)CCC(=O)N3)cnc1C(F)(F)F (racemic) [Compound 650, 2-[(2R,5S)-5-Methyl-2-(2-oxo-3,4-dihydro-1H-quinolin-6-yl)-1-piperidyl]-N-[5-methyl-6-(trifluoromethyl)-3-pyridyl]-2-oxo-acetamide]	50 to 500 nM	50 to 500 nM	50 to 500 nM		
Cc1cc(NC(=O)C(=O)N2CCC(N(C)C)C[C@H]2c2ccccc2)cnc1N (mixture of isomers) [Compound 975, N-(6-amino-5-methyl-3-pyridyl)-2-[(2S,4S)-4-(dimethylamino)-2-phenyl-1-piperidyl]-2-oxo-acetamide]		> 500 nM	> 500 nM		
CNc1ccc([C@@H]2CC(F)(F)[C@@H](C)CN2C(=O)C(=O)Nc2cnc(N)c(C)c2)cn1 (racemic) [Compound 1054]	50 to 500 nM	50 to 500 nM	50 to 500 nM		
CCc1cc(NC(=O)C(=O)N2C[C@@H](C)[C@@H](OC(C)C)C[C@@H]2c2ccc3scnc3c2)cnc1N (racemic) [Compound 1235]					MTAP intact/deleted ratio ([4]; IC50 ratio HAP1 MTAP-intact vs HAP1 MTAP-deleted): A (an IC50 ratio greater than or equal to 10 fold); IC50 ([5]; viability assay, MTAP-deleted cell line, read-out: HAP1 MTAP deleted viability): < 1000 nM
Cc1ccc([C@H]2CC[C@H](C)CN2C(=O)C(=O)Nc2cncc(C)c2)cc1 (single isomer, unassigned) [Compound 12]	> 500 nM	> 500 nM		> 500 nM	
CC[C@H]1CC[C@H](c2ccccc2)N(C(=O)C(=O)Nc2cncc(C)c2)C1 (single isomer, unassigned) [Compound 18]	> 500 nM	> 500 nM			
Cc1cncc(NC(=O)C(=O)N2C[C@@H](C)CC[C@@H]2c2ccc(C)c(C)c2)c1 (single isomer, unassigned) [Compound 19]	> 500 nM	> 500 nM		> 500 nM	
CC[C@H]1CC[C@@H](c2ccccc2)N(C(=O)C(=O)Nc2cncc(C)c2)C1 (single isomer, unassigned) [Compound 20]	> 500 nM	> 500 nM		> 500 nM	
Cc1cc(NC(=O)C(=O)N2C[C@H](C)CC[C@H]2c2ccccc2)cnc1N (single isomer, unassigned) [Compound 40]					IC50 [5, 7]: > 10000 nM
Cc1cncc(NC(=O)C(=O)N2C(C)C(C)CC[C@H]2c2ccccc2)c1 (single isomer, unassigned) [Compound 41]					IC50 [5, 7]: > 10000 nM
C[C@@H]1CC[C@@H](c2ccccc2)N(C(=O)C(=O)Nc2cncc(C(N)=O)c2)C1 (single isomer, unassigned) [Compound 71]					IC50 ([4]; HAP1, read-out: HAP1 MTAP deleted IC50): > 1000 nM; IC50 [5, 7]: > 10000 nM
Cc1cc(NC(=O)C(=O)N2CCCC[C@@H]2c2cccnc2)cnc1N (single isomer, unassigned) [Compound 74]	50 to 500 nM	> 500 nM		> 500 nM	
Cc1cncc(NC(=O)C(=O)N2CC(C)CC[C@@H]2c2cccc(F)c2)c1 (single isomer, unassigned) [Compound 84]	> 500 nM	> 500 nM		> 500 nM	
C[C@@H]1CC[C@H](c2cccnc2)N(C(=O)C(=O)Nc2cncc(C(N)=O)c2)C1 (single isomer, unassigned) [Compound 98]	> 500 nM	> 500 nM		> 500 nM	
Cc1cc(NC(=O)C(=O)N2C[C@@H](C)CC[C@@H]2c2cccs2)cnc1N (single isomer, unassigned) [Compound 122]	> 500 nM	> 500 nM		> 500 nM	

SMILES	IC50 (PRMT5 [1])	IC50 (PRMT5 [2])	IC50 (PRMT5 [3]; read-out: No Cofactor/rel IC50)	IC50 (PRMT5 [3]; [6])	also measured
C[C@@H]1CC[C@H](C2CCCCC2)N(C(=O)C(=O)Nc2cncc(C(N)=O)c2)C1 (single isomer, unassigned) [Compound 127]	> 500 nM	> 500 nM		> 500 nM	
C[C@@H]1CC[C@@H](C2CCCCC2)N(C(=O)C(=O)Nc2cncc(C(N)=O)c2)C1 (single isomer, unassigned) [Compound 130]	> 500 nM	> 500 nM		> 500 nM	
Cc1cc(NC(=O)C(=O)N2C[C@@H](C)CC[C@@H]2C2CCCCC2)cnc1N (single isomer, unassigned) [Compound 152]	> 500 nM	> 500 nM		> 500 nM	
C[C@H]1C[C@@H](C)[C@H](c2ccccc2)N(C(=O)C(=O)Nc2cncc(C(N)=O)c2)C1 (single isomer, unassigned) [Compound 275, 5-(2-(3,5-dimethyl-2-phenylpiperidin-1-yl)-2-oxoacetamido)nicotinamide]	> 500 nM	> 500 nM	> 500 nM		
C[C@@H]1C[C@@H](C)[C@@H](c2ccccc2)N(C(=O)C(=O)Nc2cncc(C(N)=O)c2)C1 (single isomer, unassigned) [Compound 286, 5-(2-(3,5-dimethyl-2-phenylpiperidin-1-yl)-2-oxoacetamido)nicotinamide]	> 500 nM	> 500 nM	> 500 nM		
Cc1cc(NC(=O)C(=O)N2C[C@H](C)[C@H](C)C[C@@H]2c2ccccc2)cnc1N (single isomer, unassigned) [Compound 299]	> 500 nM	> 500 nM	> 500 nM		
Cc1cc(NC(=O)C(=O)N2C[C@H](C)[C@@H](C)C[C@@H]2c2ccccc2)cnc1N (single isomer, unassigned) [Compound 305]	> 500 nM	> 500 nM	> 500 nM		
Cc1cc(NC(=O)C(=O)N2C[C@@H](C)CC[C@@H]2c2cccnc2)cnc1N (single isomer, unassigned) [Compound 309]	> 500 nM	> 500 nM	> 500 nM		
Cc1cc([C@H]2CC[C@H](C)CN2C(=O)C(=O)Nc2cncc(C(N)=O)c2)ccc1O (single isomer, unassigned) [Compound 330]	> 500 nM	> 500 nM	> 500 nM		
COc1ncc(NC(=O)C(=O)N2C[C@H](C)CC[C@H]2C2CCCCC2)cc1C(N)=O (single isomer, unassigned) [Compound 370]	> 500 nM	> 500 nM	> 500 nM		
Cc1cc(NC(=O)C(=O)N2C[C@@H](C)CC[C@@H]2c2cccc(N(C)C)c2)cnc1N (single isomer, unassigned) [Compound 387]	> 500 nM	> 500 nM	> 500 nM		
C[C@H]1CC[C@@H](c2ccc(O)nc2)N(C(=O)C(=O)Nc2cncc(C(N)=O)c2)C1 (single isomer, unassigned) [Compound 402]	> 500 nM	> 500 nM	> 500 nM		
Cc1cc(NC(=O)C(=O)N2C[C@@H](C)CC[C@@H]2c2ccc(C(F)F)cc2)cnc1N (single isomer, unassigned) [Compound 410]					IC50 [5, 7]: > 10000 nM
Cc1ccc([C@H]2CC[C@H](C)CN2C(=O)C(=O)Nc2cncc(C(N)=O)c2)cn1 (single isomer, unassigned) [Compound 645]	> 500 nM	> 500 nM	> 500 nM		
C[C@@H]1CC[C@@H](c2ccc(C(F)(F)F)c(Cl)c2)N(C(=O)C(=O)Nc2cncc(C(N)=O)c2)C1 (single isomer, unassigned) [Compound 647]	> 500 nM	> 500 nM	> 500 nM		
C[C@@H]1CC[C@@H](c2cc(Cl)cc(C(F)(F)F)c2)N(C(=O)C(=O)Nc2cncc(C(N)=O)c2)C1 (single isomer, unassigned) [Compound 653]	> 500 nM	> 500 nM	> 500 nM		
Cc1cc(NC(=O)C(=O)N2C[C@H](C)CC[C@H]2c2ccc3c(c2)CC(=O)N3)cnc1N (single isomer, unassigned) [Compound 677]					IC50 [5, 7]: > 10000 nM
COc1ncc(NC(=O)C(=O)N2C[C@@H](C)CC[C@@H]2c2ccc3sc(CCN(C)C)nc3c2)cc1C(N)=O (single isomer, unassigned) [Compound 1378]				< 50 nM	IC50 ([4]; HAP1, SDMA in-cell western, HAP1 MTAP-deleted, read-out: HAP 1 MTAP deleted IC50): < 100 nM; MTAP intact/deleted ratio ([4]; IC50 ratio HAP1 MTAP-intact / HAP1 MTAP-deleted): A (an IC50 ratio greater than or equal to 10 fold); IC50 ([5]; Homo sapiens, HAP1, viability, HAP1 MTAP-deleted cell line, read-out: HAP1 MTAP deleted viability): < 1000 nM
